The values below come from publication PMC12073402, “A Selective MAP3K1 Inhibitor Facilitates Discovery of NPM1 as a Member of the Network” (Molecules, 2025).

Data set [1] deals with NPM1 T199 phosphorylation. As to the kind of experiment: Western blot of NPM1 T199 phosphorylation in PANC-1 cells. The format is cell-based. Particulars: 2 h. The text has this:
We further investigated changes in NPM1 phosphorylation in our dataset. Of the NPM1 phosphorylation sites quantified, four sites had significant dose-dependent decreases upon 51-106 treatment: S137, T199, S222, and S227. Only one of these phosphorylation sites, T199, has a commercially available antibody. Importantly, T199 phosphorylation plays an essential role in NPM1 function, as it is required for localization of NPM1 to sites of DNA double-stranded breaks, where it colocalizes with other DNA repair proteins such as γH2AX and RAD51 [38].
Cells were washed with cold 1× PBS and lysed in Radioimmunoprecipitation assay (RIPA) buffer (Cat# 89901; Thermo Fisher Scientific), sodium orthovanadate (Na3VO4) (Cat# 567540-5GM; Sigma-Aldrich; St. Louis, MO, USA), sodium fluoride (NaF) (Cat# 201154-5G, >99% purity; Sigma-Aldrich), β-glycerophosphate (Cat# G9422-10G; Sigma-Aldrich), and 1 mM phenylmethylsulfonyl fluoride (Cat# 10837091001; Sigma Aldrich). The samples were incubated on ice for 30 min, vortexed at 10 min intervals, and centrifuged at 14,000× g for 10 min at 4 °C. The supernatant was collected, and protein was quantified using the BCA Protein Assay kit (Cat# 23225; Thermo Fisher Scientific). […]
On the technique in general: In western blotting, separated proteins are transferred to a membrane and probed.

Data set [2] concerns TNFα-induced, MAP3K1-mediated IKKβ phosphorylation. As to the kind of experiment: AlphaLISA phospho-IKKβ / total IKKβ assay in MiaPaCa2 cells. To be noted: 20, 10, 5 μM, 30 min pretreatment, 10 ng/mL TNFα. The format is cell-based, Human. The text has this: MAP3K1 was previously shown to phosphorylate IKKβ [12] and regulate NF-κB signaling. Therefore, we validated the ability of 51-106 to inhibit MAP3K1 by probing the phosphorylation status of the known substrate, IKKβ, using an AlphaLISA assay. The pancreatic cancer cells (MiaPaCa2) were subjected to a 30-min pretreatment with varying concentrations of 51-106, followed by TNFα stimulation to induce IKKβ phosphorylation. Following a 15-min stimulation, the levels of phospho-IKKβ and total IKKβ were quantified. […] (Figure 3A). Next, we evaluated the efficacy of 51-106 in a cell-based reporter assay utilizing a HeLa cell line that specifically responds to TNFα induced expression of a luciferase reporter gene that is under the control of an NF-κB response element.
A suspension of MiaPaCa2 cells (2 × 10^5/well) in 200 μL media was plated in a flat, clear-bottomed, sterile, 48-well tissue culture plate (Cat# 353230; Corning; Corning, NY, USA). The cells were allowed to attach to the plate for ~8 h in a humidified 5% CO2 incubator at 37 °C. […] Phospho-IKKβ levels were normalized to total […], and fold change was calculated compared to DMSO treatment. […] The statistical significance between groups was determined via unpaired t-tests coupled with post hoc analysis with Welch’s correction.
In general terms: Alpha assays give light when donor and acceptor beads are brought close together.

A short description of data set [3]: Metabolic stability in human liver microsomes (LC-MS/MS). The format is in vitro ADME. The source says:
An approach to address this issue of bioavailability is to improve metabolic stability. The para-position of the phenyl ring in acetanilide moieties is susceptible to oxidation. […] To test this, we altered the substitution pattern on the phenyl ring by moving the F atom from the ortho in 84 to the para position (Figure 1A). The regioisomer 51-106, resulting from the above change, was synthesized by coupling 3-(1-methyl-1H-pyrazol-4-yl)quinoxalin-6-amine (1) with freshly prepared 1-fluoro-4-isocyanato-2-(trifluoromethyl)benzene in dichloromethane (Scheme 1). To determine the metabolic stability of 51-106, we incubated 51-106 and analog 84 with human (pooled male and female) liver microsomes and monitored their stability using liquid chromatography–tandem mass spectrometry.
The in vitro metabolic stability of 51-106 was determined using human liver […] (XenoTech, LLC; Kansas City, KS, USA), following previously reported methods. […] Sample analysis was performed by liquid chromatography–tandem mass spectrometry (SCIEX QTRAP 4000 LC-MS/MS System, SCIEX, Framingham, MA, USA).
A general note: Liver microsomes are vesicles of endoplasmic reticulum, rich in cytochrome P450 enzymes.

As for `Cn1cc(-c2cnc3ccc(NC(=O)Nc4ccc(F)c(C(F)(F)F)c4)cc3n2)cn1` [51-106, 1-(4-Fluoro-3-(trifluoromethyl)phenyl)-3-(3-(1-methyl-1H-pyrazol-4-yl)quinoxalin-6-yl)urea], in data set [1], the “NPM1 T199 phosphorylation (Western blot)” value was “Decreased phosphorylation in NPM1 T199”. For the same molecule, the “TNFα-induced, MAP3K1-mediated IKKβ phosphorylation (phospho-IKKβ / total IKKβ)” value in data set [2] is recorded as “inhibits TNFα-induced, MAP3K1-mediated IKKβ phosphorylation in a dose-dependent manner”. The “improvement in t½ in human liver microsomes” value in data set [3] (51-106 versus analog 84) was ~ 3.7 fold. For the same molecule, in data set [3] (Species Human), the “T1/2 (half-life) in human liver microsomes” value is on record as ~ 50 h. In addition, the “Hepatic Extraction Ratio (E)” value in data set [3] (Species Human, human liver microsomes) was 0.03. The half-life in data set [3] (both sexes, human, liver microsomes, Species Human, read-out: T1/2 (half-life) in human liver microsomes (converted)) was 50.2 h.
